# Measured values: ChEMBL document CHEMBL5120865, “Exploration of 6-methyl-7-(Hetero)Aryl-7-Deazapurine ribonucleosides as antileishmanial agents” (Eur J Med Chem, 2022)
# Where “and” joins values, the source holds several entries; their conditions need not be identical. Equal entries are not always repeated.
# Key:
# Leishmania infantum [1] = test: (§1) Antileishmanial activity against sodium stibogluconate and potassium antimonyl tartrate resistant intracellular Leishmania infantum MHOM/FR/96/LEM3323-CI4 promastigotes infected in Swiss mouse peritoneal macrophages assessed as inhibition of parasite growth measured after 96 hrs by microscopic analysis; type: functional, organism-based; conditions: MHOM/FR/96/LEM3323-CI4, Peritoneal macrophage
# [2] = Tmax in golden hamster infected with Leishmania infantum MHOM/MA(BE)/67 amastigotes at 50 mg/kg, po SID and measured after 24 hrs by LC-MS/MS analysis; type: ADME, organism-based, Mesocricetus auratus; conditions: in vivo
# [3] = Volume of distribution in golden hamster infected with Leishmania infantum MHOM/MA(BE)/67 amastigotes at 50 mg/kg, po SID and measured after 24 hrs by LC-MS/MS analysis; type: ADME, organism-based, Mesocricetus auratus; conditions: in vivo
# [4] = Metabolic stability in golden hamster liver microsomes S9 fraction assessed as CYP450-mediated metabolism by measuring parent compound remaining measured after 15 mins in presence of NADPH; type: ADME, subcellular, Mesocricetus auratus; conditions: read-out: Stability
# [5] = biological target: T1, UDP-glucuronosyltransferases (UGTs) (Homo sapiens, UniProt O60656+O75310+O75795+P06133+P0DTE4+P0DTE5+P16662+P19224+P22309+P22310+P35503+P35504+P36537+P54855+Q6UWM9+Q9BY64+Q9HAW7+Q9HAW8+Q9HAW9); test: Metabolic stability in human liver microsomes S9 fraction assessed as UGT-mediated metabolism by measuring parent compound remaining measured after 15 mins in presence of NADPH; type: ADME, subcellular; conditions: read-out: Stability
# [6] = Tmax in golden hamster infected with Leishmania infantum MHOM/MA(BE)/67 amastigotes at 50 mg/kg, po SID and measured after 10 days by LC-MS/MS analysis; type: ADME, organism-based, Mesocricetus auratus; conditions: in vivo, time 10 day
# [7] = Cmax in golden hamster infected with Leishmania infantum MHOM/MA(BE)/67 amastigotes at 50 mg/kg, po SID and measured after 24 hrs by LC-MS/MS analysis; type: ADME, organism-based, Mesocricetus auratus; parameters: time 24 hrs, dose 50 mg/kg, route po; conditions: in vivo
# [8] = Clearance in golden hamster infected with Leishmania infantum MHOM/MA(BE)/67 amastigotes at 50 mg/kg, po SID and measured after 24 hrs by LC-MS/MS analysis; type: ADME, organism-based, Mesocricetus auratus; conditions: in vivo
# [9] = Metabolic stability in golden hamster liver microsomes S9 fraction assessed as UGT-mediated metabolism by measuring parent compound remaining measured after 15 mins in presence of NADPH; type: ADME, subcellular, Mesocricetus auratus; conditions: read-out: Stability
# [10] = AUC (0 to 24) in golden hamster infected with Leishmania infantum MHOM/MA(BE)/67 amastigotes at 50 mg/kg, po SID and measured after 24 hrs by LC-MS/MS analysis; type: ADME, organism-based, Mesocricetus auratus; parameters: time 24 hrs, dose 50 mg/kg, route po; conditions: in vivo
# [11] = Selectivity index, ratio of CC50 for cytotoxicity against human MRC5 cells to EC50 for Trypanosoma cruzi Tulahuen CL2 amastigotes expressing beta galactosidase infected in human MRC5 cells; type: toxicity, cell-based; conditions: read-out: Ratio CC50/EC50
# Leishmania infantum [12] = test: as §1, with “stibogluconate,” for “stibogluconate and”, “tartrate and MIL” for “tartrate”, “MHOM/FR/96/LEM3323-CI4 MIL5C13” for “MHOM/FR/96/LEM3323-CI4”; type: functional, organism-based; conditions: MHOM/FR/96/LEM3323-CI4 MIL5C13, Peritoneal macrophage
# [13] = Selectivity index, ratio of CC50 for Cytotoxicity against Swiss mouse peritoneal macrophages to EC50 for intracellular Leishmania infantum MHOM/MA(BE)/67 ITMAP263 amastigotes infected in Swiss mouse peritoneal macrophages; type: toxicity, cell-based; conditions: read-out: Ratio CC50/EC50
# [14] = Metabolic stability in mouse liver microsomes S9 fraction assessed as UGT-mediated metabolism by measuring parent compound remaining measured after 15 mins in presence of NADPH; type: ADME, subcellular; conditions: read-out: Stability
# [15] = Cytotoxicity against human MRC5 cells assessed as reduction in cell viability incubated for 3 days by resazurin dye based fluorescence analysis; type: toxicity; conditions: time 3 day
# [16] = biological target: T1, UDP-glucuronosyltransferases (UGTs); test: Metabolic stability in human liver microsomes S9 fraction assessed as UGT-mediated metabolism by measuring parent compound remaining measured after 30 mins in presence of NADPH; type: ADME, subcellular; conditions: read-out: Stability
# [17] = Volume of distribution in golden hamster infected with Leishmania infantum MHOM/MA(BE)/67 amastigotes at 50 mg/kg, po SID and measured after 10 days by LC-MS/MS analysis; type: ADME, organism-based, Mesocricetus auratus; conditions: in vivo, 240 h, time 10 day
# [18] = Metabolic stability in mouse liver microsomes S9 fraction assessed as CYP450-mediated metabolism by measuring parent compound remaining measured after 60 mins in presence of NADPH; type: ADME, subcellular; conditions: read-out: Stability
# [19] = Metabolic stability in golden hamster liver microsomes S9 fraction assessed as UGT-mediated metabolism by measuring parent compound remaining measured after 30 mins in presence of NADPH; type: ADME, subcellular, Mesocricetus auratus; conditions: read-out: Stability
# [20] = Metabolic stability in mouse liver microsomes S9 fraction assessed as UGT-mediated metabolism by measuring parent compound remaining measured after 30 mins in presence of NADPH; type: ADME, subcellular; conditions: read-out: Stability
# Leishmania infantum [21] = test: Antileishmanial activity against intracellular Leishmania infantum MHOM/MA(BE)/67 ITMAP263 amastigotes infected in Swiss mouse peritoneal macrophage assessed as inhibition of parasite growth measured after 5 days by geimsa staining based microscopic analysis; type: functional, organism-based; conditions: MHOM/MA(BE)/67 ITMAP263, Peritoneal macrophage, 120 h
# [22] = AUC (0 to 8) in golden hamster infected with Leishmania infantum MHOM/MA(BE)/67 amastigotes at 50 mg/kg, po SID and measured after 10 days by LC-MS/MS analysis; type: ADME, organism-based, Mesocricetus auratus; parameters: dose 50 mg/kg, time 10 day, route po; conditions: in vivo
# [23] = Toxicity in golden hamster infected with Leishmania infantum MHOM/MA(BE)/67 amastigotes assessed as body weight loss at 50 mg/kg, po SID and administered for 10 days and measured twice weekly; type: organism-based, Mesocricetus auratus; conditions: in vivo, 240 h, time 10 day
# [24] = Cmax in golden hamster infected with Leishmania infantum MHOM/MA(BE)/67 amastigotes at 50 mg/kg, po SID and measured after 10 days by LC-MS/MS analysis; type: ADME, organism-based, Mesocricetus auratus; parameters: dose 50 mg/kg, time 10 day, route po; conditions: in vivo
# [25] = Metabolic stability in mouse liver microsomes S9 fraction assessed as UGT-mediated metabolism by measuring parent compound remaining measured after 60 mins in presence of NADPH; type: ADME, subcellular; conditions: read-out: Stability
# [26] = biological target: T1, UDP-glucuronosyltransferases (UGTs); test: Metabolic stability in human liver microsomes S9 fraction assessed as UGT-mediated metabolism by measuring parent compound remaining measured after 60 mins in presence of NADPH; type: ADME, subcellular; conditions: read-out: Stability
# Cytochrome P450 = Cytochrome P450 (Homo sapiens, UniProt P04798+P05177+P05181+P08684+P10632+P10635+P11509+P11712+P13584+P20813+P20815+P20853+P24462+P24903+P33260+P33261+P51589+P78329+P98187+Q02928+Q08477+Q16678+Q16696+Q5TCH4+Q6VVX0+Q7Z449+Q8TAV3+Q96SQ9+Q9HB55); test: Metabolic stability in human liver microsomes S9 fraction assessed as CYP450-mediated metabolism by measuring parent compound remaining measured after 30 mins in presence of NADPH; type: ADME, subcellular; conditions: read-out: Stability
# [27] = Metabolic stability in golden hamster liver microsomes S9 fraction assessed as CYP450-mediated metabolism by measuring parent compound remaining measured after 30 mins in presence of NADPH; type: ADME, subcellular, Mesocricetus auratus; conditions: read-out: Stability
# [28] = Metabolic stability in mouse liver microsomes S9 fraction assessed as CYP450-mediated metabolism by measuring parent compound remaining measured after 30 mins in presence of NADPH; type: ADME, subcellular; conditions: read-out: Stability
# [29] = Metabolic stability in golden hamster liver microsomes S9 fraction assessed as UGT-mediated metabolism by measuring parent compound remaining measured after 60 mins in presence of NADPH; type: ADME, subcellular, Mesocricetus auratus; conditions: read-out: Stability
structure (smiles),measurement,setting,value
Cc1ncnc2c1c(-c1cc(Cl)ccn1)cn2[C@@H]1O[C@H](CO)[C@@H](O)[C@H]1O,EC50,Leishmania infantum [1],2210 nM
same,Tmax,[2],30 min
same,Vd,[3],13 L/kg
same,remaining at 0.25 h,[4],96%
same,remaining at 0.25 h,[5],93%
same,Tmax,[6],30 min
same,Cmax,[7],1100 ng/mL and 2.9 µM
same,CL/F,[8],56.6 mL/min/kg
same,remaining at 0.25 h,[9],98%
same,AUC at 24 h,[10],2080 ng·h/mL
same,selectivity ratio,[11],> 77
same,EC50,Leishmania infantum [12],730 nM
same,selectivity ratio,[13],> 94
same,remaining at 0.25 h,[14],103%
same,CC50 at 72 h,[15],> 64000 nM
same,remaining at 0.5 h,[16],96%
same,Vd,[17],5.14 L/kg
same,remaining at 1 h,[18],94%
same,remaining at 0.5 h,[19],92%
same,remaining at 0.5 h,[20],102%
same,EC50,Leishmania infantum [21],680 nM
same,AUC at 240 h,[22],2840 ng·h/mL
same,Activity,[23],Non-Toxic
same,Cmax,[24],1210 ng/mL and 3.2 µM
same,remaining at 1 h,[25],100%
same,remaining at 1 h,[26],98%
same,remaining at 0.5 h,Cytochrome P450,86%
same,remaining at 0.5 h,[27],95%
same,remaining at 0.5 h,[28],86%
same,remaining at 1 h,[29],89%
